Where two headings read alike, the source gives them in different places.
Legend:
Assay type in all cases: binding
HDAC8 = target: T1, HDAC8 (Homo sapiens, UniProt Q9BY41); assay: Chemoproteomic competition pulldown assay; design: endogenous in cells; host or cells: SW620 lysate; settings: iQ; for Kd: SW620, read-out: pKdapp (converted); for relative binding vs DMSO: SW620 lysate
T1 sequence (Q9BY41 1-377): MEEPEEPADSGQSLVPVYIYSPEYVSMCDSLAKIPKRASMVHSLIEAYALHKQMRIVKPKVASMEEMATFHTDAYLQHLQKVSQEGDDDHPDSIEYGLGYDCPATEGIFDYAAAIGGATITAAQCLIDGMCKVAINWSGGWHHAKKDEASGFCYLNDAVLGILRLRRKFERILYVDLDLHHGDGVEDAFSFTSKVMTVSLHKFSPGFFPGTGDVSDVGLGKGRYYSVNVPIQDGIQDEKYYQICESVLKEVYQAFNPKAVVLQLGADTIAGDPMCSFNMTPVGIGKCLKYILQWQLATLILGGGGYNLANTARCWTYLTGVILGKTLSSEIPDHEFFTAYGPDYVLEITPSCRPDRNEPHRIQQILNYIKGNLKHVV
Method: (§1) To identify proteins directly bound by lipoic acid, we employed a chemoproteomic competition assay. Briefly, (R/S)-LA was immobilized on sepharose beads via an amidation reaction to form an affinity matrix (abbreviated as iL; Fig. 1a). This affinity matrix can be incubated with cell lysate to pull down potential LA or LM target proteins and identify these targets via bottom-up proteomics. In a competition assay, free LA or LM were incubated with lysate at different concentrations before pulling down and quantifying target proteins. […] (Fig. 1b, see “Methods” for details). […] The lysate buffer used in this assay contains 1 mM DTT to mimic the intracellular reductive milieu and to reduce lipoic acid and LM. […] Additional competition assays performed in lung adenocarcinoma cell A549 lysate also identified HDAC1, HDAC2, and HDAC6 as targets (Supplementary Fig. 1b). Amongst the three cell lines tested, HDACs were the only confidently identified targets across the 1500–3000 proteins quantified in these assays. […] We validated the results by analogous pulldown competition assays using two other affinity matrices prepared via the immobilization of either the HDAC inhibitor Quisinostat (iQ) and an analog of the class IIa HDAC inhibitor Bürli’s 31[14] (iC)[12]. We have previously shown that these affinity matrices specifically bind to the active sites of HDACs and have used them for HDACi selectivity profiling. Indeed, binding of (R/S)-LA and (R/S)-LM to HDAC1, HDAC2, HDAC3, HDAC6, and, to a lesser extent, HDAC8 was confirmed in these assays (Supplementary Fig. 1c, d). No binding to class IIa HDACs or the recently discovered common HDAC inhibitor off-target MBLAC2 was observed (Supplementary Fig. 1e)[12]. […] This observation might reflect electrostatic repulsion between the HDAC10 active site gate-keeper glutamic acid residues[15],[16] and the terminal carboxylic acid of LA.
(§2) To assess the degree of protein depletion from lysates by the affinity matrix, a second pulldown (PDPD) with fresh beads was performed using the unbound protein fraction from the vehicle control flow through. The beads were washed (1 × 1 mL of lysis buffer without inhibitors and only 0.4% Igepal, 2 × 2 mL of lysis buffer without inhibitors and only 0.2% Igepal), and captured proteins were denatured with 8 M urea buffer, alkylated with 55 mM chloroacetamide and digested with Trypsin according to standard procedures. The resulting peptides were desalted on a C18 filter plate (Sep-Pak® tC18 µElution Plate, Waters), vacuum dried, and stored at −20 °C until LC–MSMS measurement.
(§3) For the competition assays, relative binding was calculated based on the protein intensity ratio to the DMSO control for every single inhibitor concentration. EC50 values were derived from a four-parameter log-logistic regression with variable slope (constrain: bottom > 0). The obtained EC50 values were multiplied with a protein-dependent correction factor (cf), resulting in the apparent Kd value (Kd^app). The correction factor is determined by calculating the ratio of the protein intensity of two consecutive pulldowns of the vehicle control sample[13]. Targets of the inhibitors were annotated manually according to published procedures[12],[46],[47]. […] Additionally, the number of unique peptides and MSMS counts per condition were taken into account. Positive target binding across several independent experiments performed with different cell lysates further substantiated our confidence for a true positive drug-target binding event.

TBL1XR1 (Homo sapiens) = assay: Chemoproteomic competition pulldown assay (co-competed NCoR partner); settings: iQ, SW620 lysate
Chain of TBL1XR1 (Homo sapiens) (O15379 whole entry): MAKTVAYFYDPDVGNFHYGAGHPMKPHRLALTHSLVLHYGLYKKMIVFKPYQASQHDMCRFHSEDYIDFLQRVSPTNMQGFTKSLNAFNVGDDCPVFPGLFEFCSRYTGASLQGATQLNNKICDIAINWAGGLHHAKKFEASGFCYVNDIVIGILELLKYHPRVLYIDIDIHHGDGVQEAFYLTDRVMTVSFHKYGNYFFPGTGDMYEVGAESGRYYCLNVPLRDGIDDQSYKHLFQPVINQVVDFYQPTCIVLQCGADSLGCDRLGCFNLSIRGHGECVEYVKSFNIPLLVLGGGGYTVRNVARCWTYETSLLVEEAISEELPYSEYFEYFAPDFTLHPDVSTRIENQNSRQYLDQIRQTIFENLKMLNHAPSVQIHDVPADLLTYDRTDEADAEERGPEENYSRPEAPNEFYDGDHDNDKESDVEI
Chain of TBL1XR1 (Homo sapiens) (Q9BZK7 2-514, further chain): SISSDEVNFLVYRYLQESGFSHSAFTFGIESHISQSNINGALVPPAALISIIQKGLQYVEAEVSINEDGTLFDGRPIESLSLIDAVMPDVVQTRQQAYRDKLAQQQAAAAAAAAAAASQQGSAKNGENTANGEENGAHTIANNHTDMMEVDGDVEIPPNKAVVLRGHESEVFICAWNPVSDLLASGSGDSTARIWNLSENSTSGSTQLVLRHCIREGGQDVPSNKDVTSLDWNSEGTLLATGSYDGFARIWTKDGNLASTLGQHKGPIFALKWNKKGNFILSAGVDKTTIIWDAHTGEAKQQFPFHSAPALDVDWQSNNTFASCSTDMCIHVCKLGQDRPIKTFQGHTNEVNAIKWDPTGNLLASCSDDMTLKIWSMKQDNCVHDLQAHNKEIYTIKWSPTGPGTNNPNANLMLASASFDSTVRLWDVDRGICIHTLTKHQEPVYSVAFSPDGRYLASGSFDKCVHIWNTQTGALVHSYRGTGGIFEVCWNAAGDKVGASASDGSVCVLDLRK
Method: as §1, §2, §3

HDAC10 = target: T2, HDAC10 (Homo sapiens, UniProt Q969S8); assay: Chemoproteomic competition pulldown assay
T2 construct: host or cells: HeLa mono-clones, stably expressing
T2 sequence (Q969S8 1-669): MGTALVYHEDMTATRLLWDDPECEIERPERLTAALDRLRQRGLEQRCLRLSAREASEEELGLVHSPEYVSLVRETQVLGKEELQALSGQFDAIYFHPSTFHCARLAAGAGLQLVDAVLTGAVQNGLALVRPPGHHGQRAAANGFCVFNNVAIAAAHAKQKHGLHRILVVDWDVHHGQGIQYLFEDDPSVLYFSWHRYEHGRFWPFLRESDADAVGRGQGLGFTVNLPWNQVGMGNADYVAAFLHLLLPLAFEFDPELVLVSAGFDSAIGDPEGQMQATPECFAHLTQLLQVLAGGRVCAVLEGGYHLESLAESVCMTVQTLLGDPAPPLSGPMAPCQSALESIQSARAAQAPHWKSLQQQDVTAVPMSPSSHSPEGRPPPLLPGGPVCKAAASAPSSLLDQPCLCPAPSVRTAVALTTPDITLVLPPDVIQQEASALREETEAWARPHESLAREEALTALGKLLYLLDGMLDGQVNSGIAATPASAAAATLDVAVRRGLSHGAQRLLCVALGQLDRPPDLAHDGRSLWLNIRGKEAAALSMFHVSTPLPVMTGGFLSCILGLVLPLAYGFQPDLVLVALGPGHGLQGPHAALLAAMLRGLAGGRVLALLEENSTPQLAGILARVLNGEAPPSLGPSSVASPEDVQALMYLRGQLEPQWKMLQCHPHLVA
Method: as §1, §2, §3

[1] = iQ, SW620, read-out: pKdapp (converted)
[2] = iQ, SW620 lysate, log10 M -3.52288
[3] = iQ, SW620 lysate, log10 M -4.52288
[4] = iQ, SW620 lysate, log10 M -5.52288
[5] = iQ, SW620 lysate, log10 M -6.52288

| Structure (SMILES) | Kd (HDAC8) | relative binding vs DMSO (HDAC8; log10 M -3.52288) | relative binding vs DMSO (HDAC8; log10 M -4) | relative binding vs DMSO (HDAC8; log10 M -4.52288) | relative binding vs DMSO (HDAC8; log10 M -5) | relative binding vs DMSO (HDAC8; log10 M -5.52288) | relative binding vs DMSO (HDAC8; log10 M -6) | relative binding vs DMSO (HDAC8; log10 M -6.52288) | relative binding vs DMSO (HDAC8; log10 M -7) | relative binding vs DMSO (TBL1XR1 (Homo sapiens); log10 M -3.52288) | relative binding vs DMSO (TBL1XR1 (Homo sapiens); log10 M -4) | relative binding vs DMSO (TBL1XR1 (Homo sapiens); log10 M -4.52288) | relative binding vs DMSO (TBL1XR1 (Homo sapiens); log10 M -5) | relative binding vs DMSO (TBL1XR1 (Homo sapiens); log10 M -5.52288) | relative binding vs DMSO (TBL1XR1 (Homo sapiens); log10 M -6) | relative binding vs DMSO (TBL1XR1 (Homo sapiens); log10 M -6.52288) | relative binding vs DMSO (TBL1XR1 (Homo sapiens); log10 M -7) | HDAC10 binding in competition assays (HDAC10) | Kd (HDAC10; [1]) | relative binding vs DMSO (HDAC10; [2]) | further results |
| --- | --- | --- | --- | --- | --- | --- | --- | --- | --- | --- | --- | --- | --- | --- | --- | --- | --- | --- | --- | --- | --- |
| NC(=O)CCCCC1CCSS1 (racemic) [(R/S)-LM, (R/S)-lipoamide] | 15.8 µM | 0.4707 | 0.4645 | 0.802 | 1.001 | 1.106 | 1.189 | 0.8797 | 0.9776 | 0.1308 | 0.176 | 0.3741 | 0.8567 | 0.9248 | 0.9851 | 0.8544 | 0.9921 | binds HDAC10 with an even higher affinity than other HDACs | 3.16 µM | 0.03275 | relative binding vs DMSO (HDAC10; iL, MV4-11 lysate, log10 M -3.52288): 0.04424; relative binding vs DMSO (HDAC10; iL, MV4-11 lysate, log10 M -4): 0.1432; relative binding vs DMSO (HDAC10; iL, MV4-11 lysate, log10 M -4.52288): 0.2397; relative binding vs DMSO (HDAC10; iL, MV4-11 lysate, log10 M -5): 0.4705; relative binding vs DMSO (HDAC10; iL, MV4-11 lysate, log10 M -5.52288): 0.6761; relative binding vs DMSO (HDAC10; iL, MV4-11 lysate, log10 M -6): 0.5589; relative binding vs DMSO (HDAC10; iL, MV4-11 lysate, log10 M -6.52288): 0.7984; relative binding vs DMSO (HDAC10; iL, MV4-11 lysate, log10 M -7): 0.7331; Kd (HDAC10; iL, MV4-11 lysate, read-out: Kd app): 5 µM; Kd (HDAC10; iL, MV411, read-out: pKdapp (converted)): 3.16 µM; relative binding vs DMSO (HDAC10; iQ, SW620 lysate, log10 M -4): 0.4253; relative binding vs DMSO (HDAC10; [3]): 0.3482; relative binding vs DMSO (HDAC10; iQ, SW620 lysate, log10 M -5): 0.4143; relative binding vs DMSO (HDAC10; [4]): 0.681; relative binding vs DMSO (HDAC10; iQ, SW620 lysate, log10 M -6): 0.6621; relative binding vs DMSO (HDAC10; [5]): 0.6582; relative binding vs DMSO (HDAC10; iQ, SW620 lysate, log10 M -7): 0.9909 |
| O=C(O)CCCCC1CCSS1 (racemic) [(R/S)-LA, (R/S)-lipoic acid] | 39.8 µM | 0.618 | 0.6642 | 1.003 | 1.048 | 1.024 | 1.06 | 0.9713 | 1.01 | 0.2899 | 0.4212 | 0.5577 | 0.7209 | 0.9534 | 0.8832 | 1.088 | 1.002 | does not bind HDAC10 | > 316 µM | 0.8351 | relative binding vs DMSO (HDAC10; iQ, SW620 lysate, log10 M -4): 1.0789; relative binding vs DMSO (HDAC10; [3]): 0.7975; relative binding vs DMSO (HDAC10; iQ, SW620 lysate, log10 M -5): 1.279; relative binding vs DMSO (HDAC10; [4]): 1.261; relative binding vs DMSO (HDAC10; iQ, SW620 lysate, log10 M -6): 1.294; relative binding vs DMSO (HDAC10; [5]): 1.332; relative binding vs DMSO (HDAC10; iQ, SW620 lysate, log10 M -7): 1.395 |
